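At the GI50, growth is halved. TGI denotes the concentration required for complete inhibition of growth.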
Key:
Assay in all cases: NCI-60 cell line screen, 384-well format
NCI-H23 lung = system: NCI-H23 lung
NCI-H322M lung = system: NCI-H322M lung
NCI-H460 NSCLC = system: NCI-H460 NSCLC
NCI-H522 lung = system: NCI-H522 lung
NCI/ADR-RES ovarian = system: NCI/ADR-RES ovarian
OVCAR-3 ovarian = system: OVCAR-3 ovarian
OVCAR-4 ovarian = system: OVCAR-4 ovarian
OVCAR-5 ovarian = system: OVCAR-5 ovarian
PC-3 prostate = system: PC-3 prostate
RPMI-8226 leukemia = system: RPMI-8226 leukemia
RXF 393 renal = system: RXF 393 renal
SF-268 CNS = system: SF-268 CNS
SF-295 CNS = system: SF-295 CNS
SF-539 CNS = system: SF-539 CNS
SK-MEL-2 melanoma = system: SK-MEL-2 melanoma
SK-MEL-28 melanoma = system: SK-MEL-28 melanoma
SK-MEL-5 melanoma = system: SK-MEL-5 melanoma
SK-OV-3 ovarian = system: SK-OV-3 ovarian
SN12C renal = system: SN12C renal
SNB-19 CNS = system: SNB-19 CNS
SNB-75 CNS = system: SNB-75 CNS
SR leukemia = system: SR leukemia
SW-620 colon = system: SW-620 colon
T-47D breast = system: T-47D breast
TK-10 renal = system: TK-10 renal
U251 glioblastoma = system: U251 glioblastoma
UACC-257 melanoma = system: UACC-257 melanoma
UACC-62 melanoma = system: UACC-62 melanoma
UO-31 renal = system: UO-31 renal

`CC(C)C[C@H](NC(=O)CNC(=O)c1cc(Cl)ccc1Cl)B(O)O` was tested, and the GI50 (NCI-H23 lung) was 22.7 nM, the TGI (NCI-H23 lung) was 65.5 nM and the GI50 (NCI-H322M lung) was 572 nM. It also gave a TGI (NCI-H322M lung) of 6500 nM, a GI50 (NCI-H460 NSCLC) of 61.6 nM and a TGI (NCI-H460 NSCLC) of 263 nM. It also gave a GI50 (NCI-H522 lung) of 16.5 nM, a TGI (NCI-H522 lung) of 30.9 nM and a GI50 (NCI/ADR-RES ovarian) of 235 nM. It also gave a TGI (NCI/ADR-RES ovarian) of 781 nM, a GI50 (OVCAR-3 ovarian) of 14.9 nM and a TGI (OVCAR-3 ovarian) of 31.4 nM. For the same molecule, the GI50 (OVCAR-4 ovarian) was 82.1 nM, the TGI (OVCAR-4 ovarian) was 219 nM and the GI50 (OVCAR-5 ovarian) was 66.6 nM. For the same molecule, the TGI (OVCAR-5 ovarian) was 277 nM, the GI50 (PC-3 prostate) was 90.8 nM and the TGI (PC-3 prostate) was 298 nM. For the same molecule, the GI50 (RPMI-8226 leukemia) was < 10 nM, the GI50 (RXF 393 renal) was 18 nM and the TGI (RXF 393 renal) was 33 nM. For the same molecule, the GI50 (SF-268 CNS) was 26 nM, the TGI (SF-268 CNS) was 60.6 nM and the GI50 (SF-295 CNS) was 55.5 nM. For the same molecule, the TGI (SF-295 CNS) was 236 nM, the GI50 (SF-539 CNS) was 20.7 nM and the TGI (SF-539 CNS) was 35.2 nM. The GI50 (SK-MEL-2 melanoma) was 33.6 nM, the TGI (SK-MEL-2 melanoma) was 51.3 nM and the GI50 (SK-MEL-28 melanoma) was 16.6 nM. It also gave a TGI (SK-MEL-28 melanoma) of 32 nM, a GI50 (SK-MEL-5 melanoma) of 19.7 nM and a TGI (SK-MEL-5 melanoma) of 41.7 nM. For the same molecule, the GI50 (SK-OV-3 ovarian) was 184 nM, the TGI (SK-OV-3 ovarian) was 1520 nM and the GI50 (SN12C renal) was 62.2 nM. For the same molecule, the TGI (SN12C renal) was 243 nM, the GI50 (SNB-19 CNS) was 84.2 nM and the TGI (SNB-19 CNS) was 421 nM. The GI50 (SNB-75 CNS) was 111 nM, the TGI (SNB-75 CNS) was 299 nM and the GI50 (SR leukemia) was 11.1 nM. For the same molecule, the TGI (SR leukemia) was 23.4 nM, the GI50 (SW-620 colon) was 17.7 nM and the TGI (SW-620 colon) was 34 nM. It also gave a GI50 (T-47D breast) of 32.9 nM, a TGI (T-47D breast) of 62.8 nM and a GI50 (TK-10 renal) of 20.8 nM. The TGI (TK-10 renal) was 54 nM, the GI50 (U251 glioblastoma) was 67.6 nM and the TGI (U251 glioblastoma) was 1100 nM. The GI50 (UACC-257 melanoma) was 20 nM, the TGI (UACC-257 melanoma) was 36.7 nM and the GI50 (UACC-62 melanoma) was 27.5 nM. The TGI (UACC-62 melanoma) was 81.1 nM, the GI50 (UO-31 renal) was 26.3 nM and the TGI (UO-31 renal) was 66.1 nM.
